Test results reported in PubChem BioAssay AID2458 (Broad Institute, 2010).
Results filed as inconclusive are left out.

Biological target: Luciferin 4-monooxygenase (Photinus pyralis) (UniProt P08659)
Test: Photinus pyralis luciferase translation or activity inhibitors, H4 neuroglioma cells, confirmatory dose response (AID 2458)
Settings: luciferase luminescence

Sequence of Luciferin 4-monooxygenase (Photinus pyralis) (P08659 whole entry, looked up): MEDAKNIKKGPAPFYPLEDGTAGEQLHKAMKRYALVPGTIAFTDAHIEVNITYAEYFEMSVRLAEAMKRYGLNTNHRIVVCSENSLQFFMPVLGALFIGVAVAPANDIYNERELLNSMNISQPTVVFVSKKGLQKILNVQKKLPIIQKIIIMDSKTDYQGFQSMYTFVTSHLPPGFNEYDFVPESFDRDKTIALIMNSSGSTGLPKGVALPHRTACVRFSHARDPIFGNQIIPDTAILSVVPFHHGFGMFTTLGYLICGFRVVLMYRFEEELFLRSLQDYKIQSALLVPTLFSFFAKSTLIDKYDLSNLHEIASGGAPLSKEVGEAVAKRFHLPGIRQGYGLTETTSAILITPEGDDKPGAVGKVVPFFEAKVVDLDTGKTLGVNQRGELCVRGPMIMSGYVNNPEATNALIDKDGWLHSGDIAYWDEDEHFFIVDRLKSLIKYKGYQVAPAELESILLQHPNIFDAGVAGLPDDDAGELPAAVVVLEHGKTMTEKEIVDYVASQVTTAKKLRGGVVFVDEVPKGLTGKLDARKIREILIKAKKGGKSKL

COc1ccc(O)c2c(=O)c3c(OC)cc4c(c3oc12)C1C=COC1O4 (stereo unspecified)
EC50: 0.521 µM
